# Measurements reported in USRE47141E1, “Methods of treating fibrosis, cancer and vascular injuries” (EWHA University—Industry Collaboration Foundation, priority 2010, dated 2018).
# Marks after values point to notes of the source that are not given here.
# Experiments:
# MMTV/c-Neu mice = test: Anti-metastatic effect on MMTV/c-Neu mice breast cancer model; format: in vivo; conditions: for β-casein mRNA expression level in the lung: 43.6 mg/kg intraperitoneally every other day, Example 61 three weeks, Example 3 ten weeks
# Procedure: Anti-metastatic Effect on MMTV/c-Neu mice breast cancer model MMTV/c-Neu female transgenic mice were purchased from Jackson Laboratory (Bar Harbor, Me., USA). Animals were maintained in a temperature-controlled SPF room (22° C.) and supplied with food and water ad libitum. In Experiment 1, Example 61 (43.6 mg/kg) dissolved in saline was given to thirty two-week-old MMTV/c-Neu mice intraperitoneally every other day for three weeks. […] Mice were sacrificed at 24 h after the last dosing, and tissues of mammary tumor and lung were analyzed by hematoxylin and eosin (H&E) staining To analyse β-casein mRNA level in tissues of mammary tumor and lung, total RNAs were isolated from these tissues using TRIzol reagent (Invitrogen Corporation) and RNeasy Mini kit (Qiagen) according to the manufacturer's instruction. The cDNAs were synthesized from 2 μg of total RNAs using random primer (Invitrogen Corporation) by MMLV RTase (Invitrogen Corporation) for 1 h at 37° C. and subjected to PCR amplification using Taq polymerase (Promega) and following gene-specific primers: mouse GAPDH (forward) 5′-[…]-3′ and (reverse) 5′-[…]-3′, mouse β-casein (forward) 5′-[…]-3′ and (reverse) 5′-[…]-3′. Amplified DNA was analyzed by agarose gel electrophoresis.
# Activity of MMP-9 and MMP-2 in the primary mammary tumor was measured by gelatin zymography. Tumor tissues from mice (30 mg) was lysed in 500 μL RIPA buffer (50 mM Tris, 150 mM NaCl, 0.1% sodium dodecyl sulfate, 0.5% sodium deoxycholate, 1% NP-40, protease inhibitor without EDTA) for 10-20 min on ice. Lysates were cleared by centrifugation at 13000 rpm at 4° C. for 10 min. Protein content of supernatants was determined using Micro-BCA protein assay kit (Thermo Scientific). Loading samples were prepared by adding loading buffer (0.5 M Tris, pH 6.8, 50% glycerol, 10% SDS, and 1% bromophenol blue solution) into lysates containing 15 μg of total protein. Loading samples were heated at 60° C. for 5 min and separated by electrophoresis on 10% polyacrylamide gel containing 0.2% gelatin. Gel was washed twice with washing buffer [2.5% Triton-X100, 0.05 M Tris-HCl, pH 7.5, and 0.1 M NaCl] for 30 min at room temperature. […] Gel image was obtained using a densitometer LAS-3000 imager (FUJIFILM) in cybergreen mode.
# [1] = test system: bile duct-ligated (BDL) rats; test: Anti-fibrotic effect on bile duct-ligated liver fibrosis model; format: in vivo; conditions: for Body weight / Organ weight Liver / Organ weight Liver/Body / Organ weight Spleen / Organ weight Spleen/Body: mean ± S.E.
# [2] = test system: BALB/c 4T1 xenografted mice; test: Anti-metastatic effect on BALB/c 4T1 xenografted mice model; format: in vivo; conditions: Example 3 13.6 or 27.3 mg/kg orally BID, four weeks; Example 2 5, 10, 20, or 40 mg/kg orally; Example 61 43.6 mg/kg intraperitoneally every other day, 2.5 weeks
# Procedure: Female BALB/c mice were purchased from Orient Bio Inc. (Seoul, Korea). Animals were maintained in a temperature-controlled room (22° C.) and supplied with food and water ad libitum. 4T1 cells (1.2×10^4 cells) were suspended in PBS and implanted into the left #4 mammary fat pad of five to six-week-old female BALB/c mice (day 0). In Experiment 1, treatment was started after tumor implantation (day 0). […] In Experiment 2, treatment was started on day 4. […] In Experiment 3, treatment was started on day 4. […] In Experiment 4, 4T1 cells (1×10^4 cells) were suspended in PBS and implanted into the left #4 mammary fat pad of ten-week-old female BALB/c mice (day 0). Treatment was started on day 10. Example 61 (43.6 mg/kg) dissolved in saline was given to mice intraperitoneally every other day for 2.5 weeks. In all Experiments, mice were sacrificed at 24 to 72 h after the last dosing, and 15% India ink solution (Hardy Diagnostics) in PBS was immediately injected into the trachea. […] Number of metastatic nodule was counted on the surface of left lobe of lung, and picture of lung was taken with digital camera. The tumor size was measured using calipers, and the tumor volume was calculated by using the following equation: Tumor volume=(0.5236)×(width)^2×(length)
# Either vehicle buffer (4 mM HCl, 1 mg/mL BSA) or TGF-β1 (50 ng/mouse) in vehicle buffer was given to mice intravenously at 2 h before mice were sacrificed. Tumor tissues from mice were lysed in RIPA buffer [50 mM Tris, pH 7.5, 150 mM NaCl, 0.1% sodium dodecyl sulfate, 0.5% sodium deoxycholate, 1% NP-40, 1 mM NaF, 1 mM Na3VO4, 1 mM PMSF, a protease inhibitor cocktail (1 tablet of Roche Diagnostics GmbH protease inhibitor cocktail/10 mL) (Roche)] for 20 min on ice. Lysates were cleared by centrifugation at 13000 rpm at 4° C. for 20 min. Protein content of supernatants was determined using Micro-BCA (bicinchoninic acid) protein assay kit (Thermo Scientific). Lysates containing 20-50 μg total protein were separated by electrophoresis on polyacrylamide gel and then electrophoretically transferred to polyvinylidene difluoride transfer membranes (Millipore, Billerica, Mass., USA). Membranes were blocked with 5% BSA (Sigma-Aldrich) in PBS containing 0.5% Tween-20 (PBST) for 1 h and incubated overnight at 4° C. with one of following antibodies: anti-phospho-Smad2 (Millipore), anti-Smad2/3 (BD Transduction Laboratories, NJ, USA), or anti-β-actin (Sigma-Aldrich) in PBST containing 1% BSA. […] Bound antibodies were detected using Western Blotting Luminol Reagent (SantaCruz Biotechnology). Band intensities were analyzed using a densitometer LAS-3000 imager (FUJIFILM, Tokyo, Japan).
# UUO rats = conditions: cited from earlier work
# rats = conditions: cited from earlier work
# [3] = test system: SBE-luc and GFAP-luc mice immunized with MOG35-55; conditions: cited from earlier work
# Tramp C2 = conditions: mice treated with murine prostate cancer cell line Tramp C2; cited from earlier work
# [4] = 43.6 mg/kg intraperitoneally every other day for ten weeks, gelatin zymography
# [5] = BDL rats, 21.8 mg/kg orally three times per week for four weeks
# [6] = BDL rats, 43.6 mg/kg orally three times per week for four weeks
# [7] = Sham-operated rats, 43.6 mg/kg orally three times per week for four weeks
# [8] = orally three times per week for four weeks, Example 2 5, 10, 20 mg/kg, Example 3 21.8, 43.6 mg/kg
# [9] = orally three times per week for four weeks, Western blot
structure (smiles),measurement,setting,value
Cc1cccc(-c2[nH]c(CNc3ccccc3F)nc2-c2ccc3ncnn3c2)n1.Cl [Example 3],activity of MMP-2 in the primary mammary tumor,MMTV/c-Neu mice; [4],significantly inhibited
same,activity of MMP-9 in the primary mammary tumor,MMTV/c-Neu mice; [4],significantly inhibited
same,β-casein mRNA expression level in the lung,MMTV/c-Neu mice,significantly inhibited
same,Smad signaling in BDL rat liver (pSmad3),"[1]; 21.8 or 43.6 mg/kg orally three times per week for four weeks, Western blot",inhibited
same,Body weight,[1]; [5],340 ± 0.6 g
same,Organ weight Liver,[1]; [5],"16.4 ± 0.72**^,## g"
same,Organ weight Liver/Body,[1]; [5],"4.85 ± 0.26**^,## %"
same,Organ weight Spleen,[1]; [5],1.30 ± 0.07 g
same,Organ weight Spleen/Body,[1]; [5],"0.39 ± 0.03**^,## %"
same,Body weight,[1]; [6],335 ± 8.4 g
same,Organ weight Liver,[1]; [6],"16.1 ± 0.57**^,## g"
same,Organ weight Liver/Body,[1]; [6],"4.84 ± 0.26**^,## %"
same,Organ weight Spleen,[1]; [6],1.19 ± 0.09 g
same,Organ weight Spleen/Body,[1]; [6],"0.36 ± 0.03**^,## %"
same,Body weight,[1]; [7],354 ± 12.2 g
same,Organ weight Liver,[1]; [7],11.8 ± 0.71 g
same,Organ weight Liver/Body,[1]; [7],3.34 ± 0.12%
same,Organ weight Spleen,[1]; [7],0.81 ± 0.04 g
same,Organ weight Spleen/Body,[1]; [7],0.23 ± 0.01%
same,BDL-induced histological change,"[1]; liver, H&E staining",greatly abolished
same,body weight loss in BDL rats,[1]; [8],recovered
same,organ (liver and spleen) weight in BDL rats,[1]; [8],decreased
same,serum ALT in BDL rats,[1]; [8],improved
same,serum AST in BDL rats,[1]; [8],improved
same,fibronectin in BDL rat liver,[1]; [9],suppressed
same,vimentin in BDL rat liver,[1]; [9],suppressed
same,α-SMA in BDL rat liver,[1]; [9],suppressed
same,number of metastastic nodules on the lung,[2],significantly reduced
Cc1cccc(-c2[nH]c(CNc3cccc(C#N)c3)nc2-c2ccc3ncnn3c2)n1.Cl [Example 61],number of metastastic lesions in the lung,MMTV/c-Neu mice; 43.6 mg/kg intraperitoneally every other day for three weeks,significantly reduced
same,β-casein mRNA expression level in the lung,MMTV/c-Neu mice,significantly inhibited
same,number of metastastic nodules on the lung,[2],significantly reduced
Cc1cccc(-c2[nH]c(Cc3cccc(C(N)=O)c3)nc2-c2ccc3nccnc3c2)n1 [IN-1130],renal fibrosis induced by unilateral ureteral obstruction (UUO),UUO rats,effectively suppresses
same,penile curvature,rats,corrects
same,tunical fibrosis,rats,lessens
same,experimental autoimmune encephalomyelitis (EAE),[3],ameliorates
same,tumor volume,Tramp C2,dramatically reduces
